# According to patent US20230271949A1, “GLP-1R MODULATING COMPOUNDS” (ASCLETIS BIOSCIENCE CO., LTD., priority 2022, published 2023):
# pEC50: −log10 of the molar value.
# Target: GLP-1R (Homo sapiens, UniProt P43220)
# Assay: GLP-1R agonist cAMP stimulation assay (HTRF cAMP)
# Assay type: cell-based
# Details: HEK293 cell line expressing GLP-1 target; HTRF cAMP agonist mode, 30 min at RT
# Experimental: cAMP Detection Kit, Cisbio (Cat #62AM4PEJ)
# The cell line was constructed by WuXi.
# 2. Methods • a) The compound source plate preparation: • The reference 7-37 was diluted from 500 nM, 4-fold, 10 points in DMSO using Bravo. The compounds were diluted from […], 3-fold, 10 points in DMSO using Bravo. • b) Transfer of compounds: • 1) Use Echo transfer 100 nL cpd to the OptiPlate-384 plate. • 2) Spin the plates at 1000 rpm for 5 sec. • c) Cell suspension preparation: • 1) Thaw 1 vial of GLP-1 cells rapidly in 37° C. water bath. • 2) Transfer cell suspension into 10 ml of HBSS in a 15 ml conical tube. • 3) Centrifuge cells at 1000 rpm for 5 min at room temperature to pellet cells • 4) Gently aspirate supernatant being careful not to aspirate cells. • 5) Flick pellet to loose cells and re-suspend the cell pellet in 10 ml HBSS. Use a sterile pipette to pipette up and down to dislodge clumps. • 6) Count cells for concentration and to determine cell viability on Vi-cell. • 7) Re-suspend the GLP-1 cells in assay buffer at a concentration of 1.0×E5/mL cells. • 8) Transfer 10 μL GLP-1 cells to OptiPlate-384 plate. • d) HTRF cAMP Assay for agonist: • 1) Incubate the plate at RT for 30 min before adding the detection reagent. • 2) Add 10 μL each of detection reagent using Electric Multiple Channel Pipette. • 3) Cover the 384 plate with TopSeal-A film and incubate for 60 minutes at room temperature. • Remove the TopSeal-A, read on EnVision.
# Create a new log (Inhibitor) vs response—Variable slope mode in Prism5.0 software, substitute the standard curve concentration (x) and its corresponding 665/615 data (y) into the model, convert the standard curve concentration (abscissa) by x=log(x), and make the standard curve through the converted xy.
# Transform the data of 665/615 in the whole plate into a column of data, substitute it into y in the table of standard curve concentration (x) and 665/615 data (y), copy the x (interpolatedx) corresponding to automatic conversion by the software into a table, convert it into cAMP level by the formula x=10^(x), and reset the data into 384 distribution.
# % Activity=(cAMP level−LC)/(HC−LC)*100% • Z factor: 1-3*(STD_HC+[…])/(HC-LC) • Assay Window: HC/LC • LC: The average cAMP level of adding DMSO wells • HC: The average cAMP level of adding the top concentration of reference compounds wells.
# Create a new […] in Prism5.0 software, substitute the sample concentration (x) and its corresponding % Activity data (y) into the model, convert the standard curve concentration (abscissa) to x=log(x), and make the sample curve through the converted xy.
# Sequence of GLP-1R (P43220 24-463): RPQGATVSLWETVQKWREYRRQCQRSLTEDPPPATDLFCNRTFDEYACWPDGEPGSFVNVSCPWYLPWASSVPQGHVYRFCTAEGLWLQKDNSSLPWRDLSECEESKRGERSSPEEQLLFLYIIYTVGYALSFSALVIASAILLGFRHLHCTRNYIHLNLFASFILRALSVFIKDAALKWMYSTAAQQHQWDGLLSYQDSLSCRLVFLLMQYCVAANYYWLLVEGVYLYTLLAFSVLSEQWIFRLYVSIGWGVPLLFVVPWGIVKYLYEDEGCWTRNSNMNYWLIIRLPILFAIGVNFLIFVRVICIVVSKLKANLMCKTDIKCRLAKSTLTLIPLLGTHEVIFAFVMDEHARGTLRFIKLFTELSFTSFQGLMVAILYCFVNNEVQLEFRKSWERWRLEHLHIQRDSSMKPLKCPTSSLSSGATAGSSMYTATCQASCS
row,SMILES,pEC50
1,COCCn1c(CN2CCC(c3cccc(OCc4ccc(Cl)cc4F)n3)CC2)nc2cc(C(=O)NCC(=O)c3ccc(O)c(O)c3)ccc21 [Compound 42],< 5.00
2,CCc1cc(NC(=O)c2ccc3c(c2)nc(CN2CCC(c4cccc(OCc5ccc(Cl)cc5F)n4)CC2)n3C[C@@H]2CCO2)cc2c(C)n[nH]c12 [Compound 117],7.99
3,Cc1n[nH]c2c(C(F)(F)F)cc(NC(=O)c3ccc4c(c3)nc(CN3CC=C(c5cccc(OCc6ccc(Cl)cc6F)n5)CC3)n4C[C@@H]3CCO3)cc12 [Compound 156],9.17
4,O=C(Nc1cc(F)c2[nH]ncc2c1)c1ccc2c(c1)nc(CN1CC=C(c3cccc(OCc4ccc(Cl)cc4F)n3)CC1)n2C[C@@H]1CCO1 [Compound 152],9.19
5,O=C(NCC(=O)N1CC[C@@H](O)C1)c1ccc2c(c1)nc(CN1CCC(c3cccc(OCc4ccc(Cl)cc4F)n3)CC1)n2C[C@@H]1CCO1 [Compound 77],8.72
6,COCCn1c(CN2CCC(c3cccc(OCc4ccc(Cl)cc4F)n3)CC2)nc2cc(C(=O)NCCCc3ccc(O)cc3)ccc21 [Compound 25],6.12
7,C[C@H](NC(=O)c1ccc2c(c1)nc(CN1CC=C(c3cccc(OCc4ccc(Cl)cc4F)n3)CC1)n2C[C@@H]1CCO1)C(=O)N1CC(F)(F)C[C@H]1C(=O)O [Compound 73],9.28
8,COCCn1c(CN2CCC(c3cccc(OCc4ccc(Cl)cc4F)n3)CC2)nc2cc(C(=O)NCc3ccc(NC(C)=O)cc3)ccc21 [Compound 27],6.89
9,COCCn1c(CN2CCC(c3cccc(OCc4ccc(Cl)cc4F)n3)CC2)nc2cc(C(=O)NCc3ccc(O)c(F)c3)ccc21 [Compound 31],7.43
10,COC(=O)C1CC(N(C)C)CN1C(=O)[C@H](C)NC(=O)c1ccc2c(c1)nc(CN1CCC(c3cccc(OCc4ccc(Cl)cc4F)n3)CC1)n2C[C@@H]1CCO1 (stereo partly drawn) [Compound 74],< 5.00
11,CCc1n[nH]c2ccc(NC(=O)c3ccc4c(c3)nc(CN3CCC(c5cccc(OCc6ccc(C#N)cc6F)n5)CC3)n4C[C@@H]3CCO3)cc12 [Compound 135],8.90
12,COCCn1c(CN2CCC(c3cccc(OCc4ccc(Cl)cc4F)n3)CC2)nc2cc(C(=O)NCc3ccc(O)c(OC)c3)ccc21 [Compound 28],7.12
13,N#Cc1ccc(COc2cccc(C3CCN(Cc4nc5cc(C(=O)Nc6cc(F)c7c(c6)C6(CC6)C(=O)N7)ccc5n4C[C@@H]4CCO4)CC3)n2)c(F)c1 [Compound 125],9.26
14,O=C(NCCc1ccc(O)cc1)c1ccc2c(c1)nc(CN1CCC(c3cccc(OCc4ccc(Cl)cc4F)n3)CC1)n2C[C@@H]1CCO1 [Compound 15],7.59
15,COC(=O)[C@@H]1CC(F)(F)CN1C(=O)[C@H](C)NC(=O)c1ccc2c(c1)nc(CN1CC=C(c3cccc(OCc4ccc(Cl)cc4F)n3)CC1)n2C[C@@H]1CCO1 [Compound 71],6.88
16,Cc1n[nH]c2c(C(F)(F)F)cc(NC(=O)c3ccc4c(c3)nc(CN3CCC(c5cccc(OCc6ccc(Cl)cc6F)n5)CC3)n4C[C@@H]3CCO3)cc12 [Compound 106],8.64
17,O=C(Nc1cc(F)c2c(c1)C1(CC1)C(=O)N2)c1ccc2c(c1)nc(CN1CCC(c3cccc(OCc4ccc(Cl)cc4F)n3)CC1)n2C[C@@H]1CCO1 [Compound 104],8.98
18,O=C(N[C@@H](Cc1ccc(O)cc1)C(=O)O)c1ccc2c(c1)nc(CN1CCC(c3cccc(OCc4ccc(Cl)cc4F)n3)CC1)n2C[C@@H]1CCO1 [Compound 51],6.87

# Second part, the compound after the results:
row,pEC50,SMILES
1,7.66,O=C(Nc1cnn2[nH]ccc12)c1ccc2c(c1)nc(CN1CC=C(c3cccc(OCc4ccc(Cl)cc4F)n3)CC1)n2C[C@@H]1CCO1 [Compound 401]
2,8.64,Cc1n[nH]c2cnc(NC(=O)c3ccc4c(c3)nc(CN3CCC(c5cccc(OCc6ccc(Cl)cc6F)n5)CC3)n4C[C@@H]3CCO3)nc12 [Compound 195]
3,8.92,Cc1n[nH]c2c(Cl)cc(C(=O)Nc3ccc4c(c3)nc(CN3CC=C(c5cccc(OCc6ccc(Cl)cc6F)n5)CC3)n4C[C@@H]3CCO3)cc12 [Compound 214]
4,10.05,N#Cc1ccc(COc2cccc(C3=CCN(Cc4nc5cc(NC(=O)c6ccc7c(c6)C6(CC6)C(=O)N7)ccc5n4C[C@@H]4CCO4)CC3)n2)c(F)c1 [Compound 230]
5,9.74,Cc1cc(NC(=O)c2ccc3c(c2)nc(CN2CC=C(c4cccc5c4OC(C)(c4ccc(Cl)cc4F)O5)CC2)n3C[C@@H]2CCO2)cc2c1NC(=O)C21CC1 (stereo partly drawn) [Compound 301]
6,9.66,N#Cc1ccc(COc2cccc(C3=CCN(Cc4nc5cc(NC(=O)c6cc(F)c7c(c6)C6(CC6)C(=O)N7)ccc5n4C[C@@H]4CCO4)CC3)n2)c(F)c1 [Compound 227]
7,9.25,Cc1n[nH]c2ccc(C(=O)Nc3ccc4c(c3)nc(CN3CC=C(c5cccc6c5OC(C)(c5ccc(Cl)cc5F)O6)CC3)n4CC3CCO3)cc12 (stereo not drawn) [Compound 306]
8,7.70,O=C(Nc1nc2[nH]cnc2o1)c1ccc2c(c1)nc(CN1CC=C(c3cccc(OCc4ccc(Cl)cc4F)n3)CC1)n2C[C@@H]1CCO1 [Compound 404]
9,9.26,Cc1n[nH]c2c(F)cc(C(=O)Nc3ccc4c(c3)nc(CN3CCC(c5cccc(OCc6cc(F)c(C#N)s6)n5)CC3)n4C[C@@H]3CCO3)cc12 [Compound 374]
10,9.41,Cc1cc(NC(=O)c2ccc3c(c2)nc(CN2CCC(c4cccc5c4OC(C)(c4ccc(Cl)cc4F)O5)CC2)n3C[C@@H]2CCO2)cc2[nH]c(=O)[nH]c12 (stereo partly drawn) [Compound 339]
11,8.66,CC1(c2ccc(Cl)cc2F)Oc2cccc(C3CCN(Cc4nc5cc(C(=O)Nc6ccc7[nH]nc(C(F)(F)F)c7c6)ccc5n4CC4CCO4)CC3)c2O1 (stereo not drawn) [Compound 333]
12,7.92,Cc1n[nH]c2ncc(C(=O)Nc3ccc4c(c3)nc(CN3CC=C(c5cccc(OCc6ccc(Cl)cc6F)n5)CC3)n4C[C@@H]3CCO3)nc12 [Compound 238]
13,9.41,Cc1c(C#N)sc(COc2cccc(C3CCN(Cc4nc5cc(NC(=O)c6ccc7[nH]nc(C)c7c6)ccc5n4C[C@@H]4CCO4)CC3)n2)c1F [Compound 373]
14,9.03,CCc1n[nH]c2ccc(C(=O)Nc3ccc4c(c3)nc(CN3CC=C(c5cccc6c5OC(C)(c5ccc(C#N)cc5F)O6)CC3)n4CC3CCO3)cc12 (stereo not drawn) [Compound 310]
15,9.06,CCc1n[nH]c2ccc(C(=O)Nc3ccc4c(c3)nc(CN3CC=C(c5cccc(OCc6ccc(C#N)cc6F)n5)CC3)n4C[C@@H]3CCO3)cc12 [Compound 231]
16,7.50,O=C(Nc1ccc2c(c1)nc(C(F)(F)N1CC=C(c3cccc(OCc4ccc(Cl)cc4F)n3)CC1)n2C[C@@H]1CCO1)c1ccc2[nH]nc(C3CC3)c2c1 [Compound 258]
17,9.74,Cc1n[nH]c2c(F)cc(C(=O)Nc3ccc4c(c3)nc(CN3CC=C(c5cccc6c5OC(C)(c5ccc(Cl)cc5F)O6)CC3)n4CC3CCO3)cc12 (stereo not drawn) [Compound 304]
18,7.82,O=C(Nc1ccc2c(c1)nc(CN1CC=C(c3cccc(OCc4ccc(Cl)cc4F)n3)CC1)n2C[C@@H]1CCO1)c1ccc2[nH]ccc2c1 [Compound 393]
19,9.00,Cc1n[nH]c2c(F)cc(NC(=O)c3ccc4c(c3)nc(CN3CCC(c5cccc(OCc6cc(F)c(C#N)s6)n5)CC3)n4C[C@@H]3CCO3)cc12 [Compound 375]
20,7.14,O=C(Nc1cc2[nH]ccc2s1)c1ccc2c(c1)nc(CN1CC=C(c3cccc(OCc4ccc(Cl)cc4F)n3)CC1)n2C[C@@H]1CCO1 [Compound 402]
21,8.50,Cc1n[nH]c2ccc(C(=O)Nc3ccc4c(c3)nc(CN3CC=C(c5cccc(OCc6ccc(Cl)cc6F)n5)CC3)n4C[C@@H]3CCO3)nc12 [Compound 239]
